According to ChEMBL document CHEMBL4342480, “Design of Dual Inhibitors of Soluble Epoxide Hydrolase and LTA4 Hydrolase” (ACS Med Chem Lett, 2020):

Legend:
Type in all cases: functional
Macrophage [1] = test: Antiinflammatory activity in Escherichia coli O6:K2:H1-induced human M1 macrophage assessed as change in 15-HEPE level at 1 uM preincubated for 10 mins followed by Escherichia coli O6:K2:H1-stimulation and measured after 180 mins by UPLC-MS/MS analysis relative to control
Macrophage [2] = test: Antiinflammatory activity in Escherichia coli O6:K2:H1-induced human M1 macrophage assessed as change in 12-HETE level at 1 uM preincubated for 10 mins followed by Escherichia coli O6:K2:H1-stimulation and measured after 180 mins by UPLC-MS/MS analysis relative to control
Macrophage [3] = test: Antiinflammatory activity in Escherichia coli O6:K2:H1-induced human M1 macrophage assessed as change in 12-HEPE level at 1 uM preincubated for 10 mins followed by Escherichia coli O6:K2:H1-stimulation and measured after 180 mins by UPLC-MS/MS analysis relative to control
Macrophage [4] = test: Antiinflammatory activity in Escherichia coli O6:K2:H1-induced human M1 macrophage assessed as change in 18-HEPE level at 1 uM preincubated for 10 mins followed by Escherichia coli O6:K2:H1-stimulation and measured after 180 mins by UPLC-MS/MS analysis relative to control
Macrophage [5] = test: Antiinflammatory activity in Escherichia coli O6:K2:H1-induced human M1 macrophage assessed as change in PGE2 level at 1 uM preincubated for 10 mins followed by Escherichia coli O6:K2:H1-stimulation and measured after 180 mins by UPLC-MS/MS analysis relative to control
Macrophage [6] = test: Antiinflammatory activity in Escherichia coli O6:K2:H1-induced human M1 macrophage assessed as change in PGF2alpha level at 1 uM preincubated for 10 mins followed by Escherichia coli O6:K2:H1-stimulation and measured after 180 mins by UPLC-MS/MS analysis relative to control
Macrophage [7] = test: Antiinflammatory activity in Escherichia coli O6:K2:H1-induced human M1 macrophage assessed as change in 5-HETE level at 1 uM preincubated for 10 mins followed by Escherichia coli O6:K2:H1-stimulation and measured after 180 mins by UPLC-MS/MS analysis relative to control
Macrophage [8] = test: Antiinflammatory activity in Escherichia coli O6:K2:H1-induced human M1 macrophage assessed as change in 5-HEPE level at 1 uM preincubated for 10 mins followed by Escherichia coli O6:K2:H1-stimulation and measured after 180 mins by UPLC-MS/MS analysis relative to control
Macrophage [9] = test: Antiinflammatory activity in Escherichia coli O6:K2:H1-induced human M1 macrophage assessed as change in LTB4 level at 1 uM preincubated for 10 mins followed by Escherichia coli O6:K2:H1-stimulation and measured after 180 mins by UPLC-MS/MS analysis relative to control
Macrophage [10] = test: Antiinflammatory activity in Escherichia coli O6:K2:H1-induced human M1 macrophage assessed as change in 15-HEPE level at 10 uM preincubated for 10 mins followed by Escherichia coli O6:K2:H1-stimulation and measured after 180 mins by UPLC-MS/MS analysis relative to control
Macrophage [11] = test: Antiinflammatory activity in Escherichia coli O6:K2:H1-induced human M1 macrophage assessed as change in 14-HDHA level at 10 uM preincubated for 10 mins followed by Escherichia coli O6:K2:H1-stimulation and measured after 180 mins by UPLC-MS/MS analysis relative to control
Macrophage [12] = test: Antiinflammatory activity in Escherichia coli O6:K2:H1-induced human M1 macrophage assessed as change in 12-HEPE level at 10 uM preincubated for 10 mins followed by Escherichia coli O6:K2:H1-stimulation and measured after 180 mins by UPLC-MS/MS analysis relative to control
Macrophage [13] = test: Antiinflammatory activity in Escherichia coli O6:K2:H1-induced human M1 macrophage assessed as change in 7-HDHA level at 10 uM preincubated for 10 mins followed by Escherichia coli O6:K2:H1-stimulation and measured after 180 mins by UPLC-MS/MS analysis relative to control
Macrophage [14] = test: Antiinflammatory activity in Escherichia coli O6:K2:H1-induced human M1 macrophage assessed as change in 18-HEPE level at 10 uM preincubated for 10 mins followed by Escherichia coli O6:K2:H1-stimulation and measured after 180 mins by UPLC-MS/MS analysis relative to control
Macrophage [15] = test: Antiinflammatory activity in Escherichia coli O6:K2:H1-induced human M2 macrophage assessed as change in 14-HDHA level at 1 uM preincubated for 10 mins followed by Escherichia coli O6:K2:H1-stimulation and measured after 180 mins by UPLC-MS/MS analysis relative to control
Macrophage [16] = test: Antiinflammatory activity in Escherichia coli O6:K2:H1-induced human M2 macrophage assessed as change in 12-HETE level at 1 uM preincubated for 10 mins followed by Escherichia coli O6:K2:H1-stimulation and measured after 180 mins by UPLC-MS/MS analysis relative to control
Macrophage [17] = test: Antiinflammatory activity in Escherichia coli O6:K2:H1-induced human M2 macrophage assessed as change in 4-HDHA level at 1 uM preincubated for 10 mins followed by Escherichia coli O6:K2:H1-stimulation and measured after 180 mins by UPLC-MS/MS analysis relative to control
Macrophage [18] = test: Antiinflammatory activity in Escherichia coli O6:K2:H1-induced human M2 macrophage assessed as change in 18-HEPE level at 1 uM preincubated for 10 mins followed by Escherichia coli O6:K2:H1-stimulation and measured after 180 mins by UPLC-MS/MS analysis relative to control
Macrophage [19] = test: Antiinflammatory activity in Escherichia coli O6:K2:H1-induced human M2 macrophage assessed as change in 12-HEPE level at 10 uM preincubated for 10 mins followed by Escherichia coli O6:K2:H1-stimulation and measured after 180 mins by UPLC-MS/MS analysis relative to control
Macrophage [20] = test: Antiinflammatory activity in Escherichia coli O6:K2:H1-induced human M2 macrophage assessed as change in 7-HDHA level at 10 uM preincubated for 10 mins followed by Escherichia coli O6:K2:H1-stimulation and measured after 180 mins by UPLC-MS/MS analysis relative to control
Macrophage [21] = test: Antiinflammatory activity in Escherichia coli O6:K2:H1-induced human M2 macrophage assessed as change in PGF2alpha level at 10 uM preincubated for 10 mins followed by Escherichia coli O6:K2:H1-stimulation and measured after 180 mins by UPLC-MS/MS analysis relative to control
Macrophage [22] = test: Antiinflammatory activity in Escherichia coli O6:K2:H1-induced human M2 macrophage assessed as change in […] level at 10 uM preincubated for 10 mins followed by Escherichia coli O6:K2:H1-stimulation and measured after 180 mins by UPLC-MS/MS analysis relative to control
Macrophage [23] = test: Antiinflammatory activity in Escherichia coli O6:K2:H1-induced human M2 macrophage assessed as change in total LTB4 level at 10 uM preincubated for 10 mins followed by Escherichia coli O6:K2:H1-stimulation and measured after 180 mins by UPLC-MS/MS analysis relative to control
Macrophage [24] = test: Antiinflammatory activity in Escherichia coli O6:K2:H1-induced human M2 macrophage assessed as change in LTB4 level at 10 uM preincubated for 10 mins followed by Escherichia coli O6:K2:H1-stimulation and measured after 180 mins by UPLC-MS/MS analysis relative to control

O=C(Cc1ccc(Oc2nc3ccccc3s2)cc1F)NCCc1ccc(F)cc1
Activity (Macrophage [1]): 97%
Activity (Macrophage [2]): 99%
Activity (Macrophage [3]): 95%
Activity (Macrophage [4]): 74%
Activity (Macrophage [5]): 109%
Activity (Macrophage [6]): 94%
Activity (Macrophage [7]): 164%
Activity (Macrophage [8]): 102%
Activity (Macrophage [9]): 181%
Activity (Macrophage [10]): 191%
Activity (Macrophage [11]): 114%
Activity (Macrophage [12]): 113%
Activity (Macrophage [13]): 66%
Activity (Macrophage [14]): 73%
Activity (Macrophage [15]): 103%
Activity (Macrophage [16]): 87%
Activity (Macrophage [17]): 82%
Activity (Macrophage [18]): 86%
Activity (Macrophage [19]): 105%
Activity (Macrophage [20]): 77%
Activity (Macrophage [21]): 45%
Activity (Macrophage [22]): 26%
Activity (Macrophage [23]): 72%
Activity (Macrophage [24]): 23%
